According to article PMC12184107 (Cell Cycle, 2024):

Tests used:
[1] = tested on: LGR5; conditions: gastric cancer, phage display; cited from earlier work
[2] = molecular target: T1, recombinant human LGR5 (leucine-rich repeat-containing G-protein-coupled receptor 5) (human) (UniProt O75473); assay: ELISA
T1 sequence (O75473 whole entry, looked up): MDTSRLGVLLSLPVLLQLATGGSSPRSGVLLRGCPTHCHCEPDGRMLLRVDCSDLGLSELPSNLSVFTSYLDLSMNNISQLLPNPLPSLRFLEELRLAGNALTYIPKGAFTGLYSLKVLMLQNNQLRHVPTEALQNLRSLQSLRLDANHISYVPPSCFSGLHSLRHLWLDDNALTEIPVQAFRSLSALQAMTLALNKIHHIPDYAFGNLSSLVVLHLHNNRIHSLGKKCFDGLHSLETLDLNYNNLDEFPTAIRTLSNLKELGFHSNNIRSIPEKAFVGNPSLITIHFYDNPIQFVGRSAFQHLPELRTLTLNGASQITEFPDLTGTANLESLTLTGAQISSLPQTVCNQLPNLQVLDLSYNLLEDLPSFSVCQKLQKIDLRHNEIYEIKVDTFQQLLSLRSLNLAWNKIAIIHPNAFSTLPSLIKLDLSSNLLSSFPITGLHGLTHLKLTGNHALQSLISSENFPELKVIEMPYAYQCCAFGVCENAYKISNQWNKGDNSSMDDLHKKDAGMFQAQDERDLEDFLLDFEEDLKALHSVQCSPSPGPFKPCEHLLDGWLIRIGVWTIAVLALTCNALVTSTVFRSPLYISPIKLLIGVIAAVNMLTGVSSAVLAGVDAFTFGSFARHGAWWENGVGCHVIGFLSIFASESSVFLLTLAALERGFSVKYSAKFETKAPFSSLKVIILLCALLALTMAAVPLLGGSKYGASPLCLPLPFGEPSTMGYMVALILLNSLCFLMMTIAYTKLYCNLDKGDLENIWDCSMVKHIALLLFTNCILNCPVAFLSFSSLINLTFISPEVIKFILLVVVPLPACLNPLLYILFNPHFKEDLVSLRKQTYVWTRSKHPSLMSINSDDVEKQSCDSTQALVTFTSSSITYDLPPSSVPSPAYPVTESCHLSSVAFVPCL

EC50 [2] [nM] | Substance | LGR5 binding [1]
– | IPQILSI | possessed LGR5 binding capabilities
0.04 | recombinant human R-spondin 1 (from UniProt Q2MKA7 21-263) (ligand) | –
